Results as given in PubChem BioAssay (NCI).
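GI50 marks 50% less growth. TGI denotes the concentration required for complete inhibition of growth.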

Legend:
Experiment in all cases: NCI anticancer screen, dose series, 384-well format
786-0 renal = system: 786-0 renal
A498 renal = system: A498 renal
A549 NSCLC = system: A549 NSCLC
ACHN renal = system: ACHN renal
BT-549 breast = system: BT-549 breast
CAKI-1 renal = system: CAKI-1 renal
COLO 205 colon = system: COLO 205 colon
DU-145 prostate = system: DU-145 prostate
EKVX NSCLC = system: EKVX NSCLC
HCT-116 colon = system: HCT-116 colon
HCT-15 colon = system: HCT-15 colon
HL-60(TB) leukemia = system: HL-60(TB) leukemia
HOP-62 NSCLC = system: HOP-62 NSCLC
HOP-92 NSCLC = system: HOP-92 NSCLC
HS 578T breast = system: HS 578T breast
HT29 colon = system: HT29 colon
IGROV1 ovarian = system: IGROV1 ovarian
K-562 leukemia = system: K-562 leukemia
KM12 colon = system: KM12 colon
M14 melanoma = system: M14 melanoma
MALME-3M melanoma = system: MALME-3M melanoma
MCF7 breast = system: MCF7 breast
MDA-MB-231 breast = system: MDA-MB-231 breast
MDA-MB-435 melanoma = system: MDA-MB-435 melanoma
MDA-MB-468 breast = system: MDA-MB-468 breast
MOLT-4 leukemia = system: MOLT-4 leukemia
NCI-H226 lung = system: NCI-H226 lung
NCI-H23 lung = system: NCI-H23 lung
NCI-H322M lung = system: NCI-H322M lung
NCI-H460 NSCLC = system: NCI-H460 NSCLC
NCI-H522 lung = system: NCI-H522 lung
OVCAR-3 ovarian = system: OVCAR-3 ovarian
OVCAR-4 ovarian = system: OVCAR-4 ovarian
OVCAR-5 ovarian = system: OVCAR-5 ovarian
OVCAR-8 ovarian = system: OVCAR-8 ovarian
PC-3 prostate = system: PC-3 prostate
RXF 393 renal = system: RXF 393 renal
SF-268 CNS = system: SF-268 CNS
SF-295 CNS = system: SF-295 CNS
SF-539 CNS = system: SF-539 CNS
SK-MEL-2 melanoma = system: SK-MEL-2 melanoma
SK-MEL-28 melanoma = system: SK-MEL-28 melanoma
SK-MEL-5 melanoma = system: SK-MEL-5 melanoma
SK-OV-3 ovarian = system: SK-OV-3 ovarian
SN12C renal = system: SN12C renal
SNB-19 CNS = system: SNB-19 CNS
SNB-75 CNS = system: SNB-75 CNS
SR leukemia = system: SR leukemia
SW-620 colon = system: SW-620 colon
T-47D breast = system: T-47D breast
TK-10 renal = system: TK-10 renal
UACC-257 melanoma = system: UACC-257 melanoma
UACC-62 melanoma = system: UACC-62 melanoma
UO-31 renal = system: UO-31 renal
CCRF-CEM leukemia = system: CCRF-CEM leukemia
HCC-2998 colon = system: HCC-2998 colon
LOX IMVI melanoma = system: LOX IMVI melanoma
NCI/ADR-RES ovarian = system: NCI/ADR-RES ovarian
RPMI-8226 leukemia = system: RPMI-8226 leukemia

## CN(C)C1CCN(C(=O)c2ccc(NC(=O)Nc3ccc(-c4nc(N5CCOCC5)nc(N5CCOCC5)n4)cc3)cc2)CC1
786-0 renal
  GI50: 290 nM
  TGI: 2030 nM
A498 renal
  GI50: 188 nM
  TGI: 943 nM
A549 NSCLC
  GI50: 22.3 nM
  TGI: 546 nM
ACHN renal
  GI50: 479 nM
  TGI: 5560 nM
BT-549 breast
  GI50: 17.6 nM
  TGI: 130 nM
CAKI-1 renal
  GI50: 278 nM
  TGI: 1230 nM
COLO 205 colon
  GI50: 26.7 nM
  TGI: 137 nM
DU-145 prostate
  GI50: 15 nM
  TGI: 1580 nM
EKVX NSCLC
  GI50: 40.6 nM
  TGI: 828 nM
HCT-116 colon
  GI50: 31.9 nM
  TGI: 1970 nM
HCT-15 colon
  GI50: 3260 nM
  TGI: > 100000 nM
HL-60(TB) leukemia
  GI50: 55.4 nM
  TGI: 227 nM
HOP-62 NSCLC
  GI50: 52.1 nM
  TGI: 351 nM
HOP-92 NSCLC
  GI50: 21.1 nM
  TGI: 118 nM
HS 578T breast
  GI50: < 10 nM
  TGI: 45.5 nM
HT29 colon
  GI50: 28.6 nM
  TGI: 1470 nM
IGROV1 ovarian
  GI50: < 10 nM
  TGI: 43.1 nM
K-562 leukemia
  GI50: 42.2 nM
  TGI: 1820 nM
KM12 colon
  GI50: 27.7 nM
  TGI: 10300 nM
M14 melanoma
  GI50: 128 nM
  TGI: 5250 nM
MALME-3M melanoma
  GI50: 18.9 nM
  TGI: 73.5 nM
MCF7 breast
  GI50: < 10 nM
  TGI: 176 nM
MDA-MB-231 breast
  GI50: 11.7 nM
  TGI: 15000 nM
MDA-MB-435 melanoma
  GI50: 23.5 nM
  TGI: 352 nM
MDA-MB-468 breast
  GI50: < 10 nM
  TGI: 22.4 nM
MOLT-4 leukemia
  GI50: 10.7 nM
  TGI: 45.4 nM
NCI-H226 lung
  GI50: 86.5 nM
  TGI: 441 nM
NCI-H23 lung
  GI50: 50.8 nM
  TGI: 1120 nM
NCI-H322M lung
  GI50: 19.5 nM
  TGI: 149 nM
NCI-H460 NSCLC
  GI50: 18.6 nM
  TGI: 1340 nM
NCI-H522 lung
  GI50: 24.4 nM
  TGI: 1610 nM
OVCAR-3 ovarian
  GI50: 12.1 nM
  TGI: 323 nM
OVCAR-4 ovarian
  GI50: < 10 nM
  TGI: 50.9 nM
OVCAR-5 ovarian
  GI50: 50.9 nM
  TGI: 12100 nM
OVCAR-8 ovarian
  GI50: 139 nM
  TGI: 2940 nM
PC-3 prostate
  GI50: 18.8 nM
  TGI: 765 nM
RXF 393 renal
  GI50: 25.2 nM
  TGI: 203 nM
SF-268 CNS
  GI50: 36.3 nM
  TGI: 1760 nM
SF-295 CNS
  GI50: 174 nM
  TGI: 607 nM
SF-539 CNS
  GI50: < 10 nM
  TGI: 113 nM
SK-MEL-2 melanoma
  GI50: 37.3 nM
  TGI: 268 nM
SK-MEL-28 melanoma
  GI50: 42.8 nM
  TGI: 1150 nM
SK-MEL-5 melanoma
  GI50: 125 nM
  TGI: 390 nM
SK-OV-3 ovarian
  GI50: < 10 nM
  TGI: 39.8 nM
SN12C renal
  GI50: 30.3 nM
  TGI: 12400 nM
SNB-19 CNS
  GI50: 383 nM
  TGI: 14400 nM
SNB-75 CNS
  GI50: < 10 nM
  TGI: 33.9 nM
SR leukemia
  GI50: < 10 nM
  TGI: 26.4 nM
SW-620 colon
  GI50: 75.2 nM
  TGI: 10200 nM
T-47D breast
  GI50: < 10 nM
  TGI: 11.4 nM
TK-10 renal
  GI50: 348 nM
  TGI: 1690 nM
UACC-257 melanoma
  GI50: 51.9 nM
  TGI: 338 nM
UACC-62 melanoma
  GI50: 24.9 nM
  TGI: 142 nM
UO-31 renal
  GI50: 2220 nM
  TGI: 7290 nM

## COc1cc2c(Oc3ccc4[nH]c(C)cc4c3F)ccnc2cc1OCC1(N)CC1
786-0 renal
  GI50: 465 nM
  TGI: 1630 nM
A498 renal
  GI50: 400 nM
  TGI: 1690 nM
A549 NSCLC
  GI50: 1080 nM
  TGI: 3150 nM
ACHN renal
  GI50: 1160 nM
  TGI: 3440 nM
BT-549 breast
  GI50: 383 nM
  TGI: 1190 nM
CAKI-1 renal
  GI50: 881 nM
  TGI: 2310 nM
CCRF-CEM leukemia
  GI50: 722 nM
  TGI: 1880 nM
COLO 205 colon
  GI50: 1300 nM
  TGI: 3010 nM
DU-145 prostate
  GI50: 2160 nM
  TGI: 7360 nM
EKVX NSCLC
  GI50: 867 nM
  TGI: 2850 nM
HCC-2998 colon
  GI50: 1370 nM
  TGI: 2850 nM
HCT-15 colon
  GI50: 493 nM
  TGI: 1760 nM
HL-60(TB) leukemia
  GI50: 240 nM
  TGI: 463 nM
HOP-62 NSCLC
  GI50: 664 nM
  TGI: 2060 nM
HOP-92 NSCLC
  GI50: 477 nM
  TGI: 1900 nM
HS 578T breast
  GI50: 294 nM
  TGI: 1040 nM
HT29 colon
  GI50: 364 nM
  TGI: 1450 nM
IGROV1 ovarian
  GI50: 1200 nM
  TGI: 4350 nM
K-562 leukemia
  GI50: 421 nM
  TGI: 1390 nM
KM12 colon
  GI50: 474 nM
  TGI: 1740 nM
LOX IMVI melanoma
  GI50: 705 nM
  TGI: 1990 nM
M14 melanoma
  GI50: 519 nM
  TGI: 1660 nM
MALME-3M melanoma
  GI50: 375 nM
  TGI: 1460 nM
MCF7 breast
  GI50: 359 nM
  TGI: 7730 nM
MDA-MB-231 breast
  GI50: 1170 nM
  TGI: 3540 nM
MDA-MB-435 melanoma
  GI50: 228 nM
  TGI: 497 nM
MDA-MB-468 breast
  GI50: 253 nM
  TGI: 567 nM
MOLT-4 leukemia
  GI50: 223 nM
  TGI: 419 nM
NCI-H226 lung
  GI50: 1110 nM
  TGI: 3020 nM
NCI-H23 lung
  GI50: 1030 nM
  TGI: 2520 nM
NCI-H322M lung
  GI50: 1440 nM
  TGI: 3420 nM
NCI-H460 NSCLC
  GI50: 714 nM
  TGI: 2030 nM
NCI-H522 lung
  GI50: 274 nM
  TGI: 672 nM
NCI/ADR-RES ovarian
  GI50: 936 nM
  TGI: 2210 nM
OVCAR-3 ovarian
  GI50: 278 nM
  TGI: 797 nM
OVCAR-4 ovarian
  GI50: 543 nM
  TGI: 3180 nM
OVCAR-5 ovarian
  GI50: 1920 nM
  TGI: 3870 nM
OVCAR-8 ovarian
  GI50: 1510 nM
  TGI: 3270 nM
PC-3 prostate
  GI50: 809 nM
  TGI: 2290 nM
RPMI-8226 leukemia
  GI50: 753 nM
  TGI: 1990 nM
RXF 393 renal
  GI50: 648 nM
  TGI: 2090 nM
SF-268 CNS
  GI50: 683 nM
  TGI: 2070 nM
SF-295 CNS
  GI50: 346 nM
  TGI: 1250 nM
SF-539 CNS
  GI50: 270 nM
  TGI: 1140 nM
SK-MEL-28 melanoma
  GI50: 828 nM
  TGI: 2080 nM
SK-MEL-5 melanoma
  GI50: 416 nM
  TGI: 1320 nM
SK-OV-3 ovarian
  GI50: 539 nM
  TGI: 1920 nM
SN12C renal
  GI50: 1120 nM
  TGI: 2860 nM
SNB-19 CNS
  GI50: 821 nM
  TGI: 2970 nM
SNB-75 CNS
  GI50: 314 nM
  TGI: 1070 nM
SR leukemia
  GI50: 182 nM
  TGI: 350 nM
SW-620 colon
  GI50: 541 nM
  TGI: 1950 nM
T-47D breast
  GI50: 1600 nM
  TGI: 5360 nM
TK-10 renal
  GI50: 1600 nM
  TGI: 3320 nM
UACC-257 melanoma
  GI50: 427 nM
  TGI: 1290 nM
UACC-62 melanoma
  GI50: 396 nM
  TGI: 1410 nM
UO-31 renal
  GI50: 1300 nM
  TGI: 2760 nM
